Here are results for 1 compound from US20250332116A1, “CARBON-BASED ANTI VIRAL NANOPARTICLES” (PORTO CONTE RICERCHE SOCIETA A RESP[…], priority 2021, published 2025).

SMILES strings stand for the structures. ≈ marks a conversion by molar mass, not a printed value.

For one series, the system named is SARS-CoV-2. Nature of the series: Antiviral activity assay (SARS-CoV-2 nucleoprotein ELISA, CPE observation) in Vero E6 cells. It is filed as cell-based. The following applies: Severe acute respiratory syndrome coronavirus 2, Vero C1008.
The nature of a further series: MTS cytotoxicity assay. The following applies: African green monkey (Cercopithecus aethiops), Vero E6 cells.

As to `CCC(CC)COC(=O)[C@H](C)N[P@](=O)(OC[C@H]1O[C@@](C#N)(c2ccc3c(N)ncnn23)[C@H](O)[C@@H]1O)Oc1ccccc1` [Remdesivir], the activity at 0.05 µg/mL in the series on SARS-CoV-2 (0.05 μg mL^−1, m.o.i. 0.01, 72 hours, ELISA, untreated infected control =100%, read-out: Antiviral activity (% viral NC protein, compared to untreated control)) is 107 ± 23%. Moreover, the activity at 0.24 µg/mL in the series on SARS-CoV-2 (0.24 μg mL^−1, m.o.i. 0.01, 72 hours, ELISA, untreated infected control =100%, read-out: Antiviral activity (% viral NC protein, compared to untreated control)) is 96 ± 10%. Also, the activity at 1.2 µg/mL in the series with SARS-CoV-2 (1.2 μg mL^−1, m.o.i. 0.01, 72 hours, ELISA, untreated infected control =100%, read-out: Antiviral activity (% viral NC protein, compared to untreated control)) came to 73 ± 9%. For the same compound, in the series with SARS-CoV-2 (6 μg mL^−1, m.o.i. 0.01, 72 hours, ELISA, untreated infected control =100%, read-out: Antiviral activity (% viral NC protein, compared to untreated control)), the activity at 6 µg/mL came to 14 ± 7%. Further, the IC50 in the series with SARS-CoV-2 (Vero E6, m.o.i. 0.01, 72 hours, nucleoprotein ELISA, read-out: 50% inhibitory concentration (IC50), SARS-CoV-2 viral replication) stood at 1.9 µg/mL (≈ 3.15 µM). Moreover, in “MTS cytotoxicity assay”, the half-maximal cytotoxic concentration (CC50) at 72 h is > 120 µg/mL; the viability at 72 h, 2.4 μg mL^−1 is 94.1 ± 1%; the viability at 72 h, 12 μg mL^−1 was determined as 98.9 ± 6.7%; the viability at 72 h, 60 μg mL^−1 was found to be 82.1 ± 2.2%.
